Results as given in article PMC9154761, “Development of Praziquantel sulphonamide derivatives as antischistosomal drugs” (Journal of Enzyme Inhibition and Medicinal Chemistry, 2022).
Read-outs that look alike come from different tables or passages of the source.

What was measured:
hCA IX = target: T1, hCA IX (Homo sapiens, UniProt Q16790); test: stopped flow CO2 hydrase assay, hCA IX; format: biochemical; conditions: mean from three different assays
T1 construct: made in house
Experimental: (§1) An Applied Photophysics stopped-flow instrument was used to assay the CA catalysed CO2 hydration activity. […] The CO2 concentrations ranged from 1.7 to 17 mM for the determination of the kinetic parameters and inhibition constants. […] For each inhibitor, at least six traces of the initial 5–10% of the reaction were used to determine the initial velocity. The uncatalyzed rates were determined in the same manner and subtracted from the total observed rates. Stock solutions of the inhibitor (0.1 mM) were prepared in distilled–deionized water and dilutions up to 0.01 nM were done thereafter with the assay buffer. Inhibitor and enzyme solutions were preincubated together for 15 min at room temperature prior to the assay, to allow for the formation of the E–I complex. The inhibition constants were obtained by non-linear least-squares methods using PRISM 3 and the Cheng-Prusoff equation as reported earlier and represent the mean from at least three different determinations. All CA isoforms were recombinant proteins obtained in house, as reported earlier[14]^,[26–29].

LdCA = LdCA (Leishmania donovani, UniProt A0A3S5H5R2); test: biochemical
Experimental: (§2) An Applied Photophysics stopped-flow instrument was used to assay the CA catalysed CO2 hydration activity. […] The uncatalyzed rates were determined in the same manner and subtracted from the total observed rates. Stock solutions of the inhibitor (0.1 mM) were prepared in distilled–deionized water and dilutions up to 0.01 nM were done thereafter with the assay buffer. Inhibitor and enzyme solutions were preincubated together for 15 min at room temperature prior to the assay, to allow for the formation of the E–I complex. The inhibition constants were obtained by non-linear least-squares methods using PRISM 3 and the Cheng-Prusoff equation as reported earlier and represent the mean from at least three different determinations. All CA isoforms were recombinant proteins obtained in house, as reported earlier[14]^,[26–29].

SmCA = SmCA (Schistosoma mansoni, UniProt A0A3Q0KSG2); test: biochemical
Experimental: as §2

hCA II = target: T2, hCA II (Homo sapiens, UniProt P00918); test: stopped flow CO2 hydrase assay, hCA II; format: biochemical; conditions: mean from three different assays, read-out: Ki hCAII
T2 construct: made in house
Experimental: as §1

hCA I = target: T3, hCA I (Homo sapiens, UniProt P00915); test: stopped flow CO2 hydrase assay, hCA I; format: biochemical; conditions: mean from three different assays
T3 construct: made in house
Experimental: as §1

hCA IV = target: T4, hCA IV (Homo sapiens, UniProt P22748); test: stopped flow CO2 hydrase assay, hCA IV; format: biochemical; conditions: mean from three different assays
T4 construct: made in house
Experimental: as §1

[1] = tested on: newly transformed schistosomula (NTS); test: In vitro antischistosomal activity against newly transformed schistosomula (NTS); format: cell-based, Schistosoma mansoni; conditions: 10 μM, after 72 h of exposure, viability via microscopy
Experimental: In vitro studies were carried out in accordance with Swiss national and cantonal regulations on animal welfare under the permission number 2070. The drug sensitivity assays with S. mansoni (adult and newly transformed schistosomules (NTS)) were carried out as described recently. Briefly, to obtain NTS, cercariae were collected from infected Biomphalaria glabrata snails and were mechanically transformed. Adult S. mansoni worms were collected by dissecting the mesenteric veins of infected mice at day 49 postinfection. Approximately 30–40 NTS were incubated with the respective test drug in 250 µL of M199 medium (Gibco, Waltham, MA) supplemented with 5% (v/v) foetal calf serum (FCS) (Bioconcept AG, Switzerland), 1% (v/v) penicillin/streptomycin solution (Sigma–Aldrich, Switzerland) and 1% (v/v) antibacterial/antifungal solution for up to 72 h at 37 °C and 5% CO2. The drug was tested at 10 µM in triplicate and repeated once. Three adult S. mansoni were incubated in a final volume of 2 mL rpmI 1640 supplemented with 5% (v/v) FCS and 1% (v/v) penicillin/streptomycin at 37 °C and 5% CO2 for 72 h at 10 µM. The experiment was conducted in duplicate. Worms were judged via microscopic readout 72 h after incubation; they were scored according to phenotypic reference points such as motility, morphology and granularity (scores from 0 to 3).

TcCA = TcCA (Trypanosoma cruzi, UniProt Q4DKE0); format: biochemical; conditions: stopped flow CO2 hydrase assay; mean from three different assays
Experimental: as §2

[2] = stopped flow CO2 hydrase assay, mean from three different assays, read-out: Ki LdCA
[3] = stopped flow CO2 hydrase assay, mean from three different assays, read-out: Ki SmCA

T3 sequence (P00915 whole entry): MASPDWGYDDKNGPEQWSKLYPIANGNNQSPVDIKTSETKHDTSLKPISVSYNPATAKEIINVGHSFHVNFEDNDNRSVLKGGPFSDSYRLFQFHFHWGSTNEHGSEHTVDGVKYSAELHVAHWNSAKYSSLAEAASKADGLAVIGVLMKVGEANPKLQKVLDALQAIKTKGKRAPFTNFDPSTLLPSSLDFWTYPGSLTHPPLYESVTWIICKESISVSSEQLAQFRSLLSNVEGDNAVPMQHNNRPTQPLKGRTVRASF
Sequence of TcCA (Q4DKE0 entry or part of it): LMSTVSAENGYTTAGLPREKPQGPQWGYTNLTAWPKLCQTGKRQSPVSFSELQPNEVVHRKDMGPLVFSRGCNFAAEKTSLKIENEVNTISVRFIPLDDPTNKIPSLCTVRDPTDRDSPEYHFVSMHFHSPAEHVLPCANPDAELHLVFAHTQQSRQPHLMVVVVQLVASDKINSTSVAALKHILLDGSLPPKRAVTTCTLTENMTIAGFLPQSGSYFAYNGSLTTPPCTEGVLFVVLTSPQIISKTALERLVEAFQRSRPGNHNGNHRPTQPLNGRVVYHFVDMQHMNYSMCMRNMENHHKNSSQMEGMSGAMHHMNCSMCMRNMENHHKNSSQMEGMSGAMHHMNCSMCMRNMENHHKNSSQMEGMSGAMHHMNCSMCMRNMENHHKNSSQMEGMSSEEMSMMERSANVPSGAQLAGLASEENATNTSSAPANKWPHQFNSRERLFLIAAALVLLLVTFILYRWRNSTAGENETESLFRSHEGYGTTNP
Sequence of LdCA (A0A3S5H5R2 entry or part of it): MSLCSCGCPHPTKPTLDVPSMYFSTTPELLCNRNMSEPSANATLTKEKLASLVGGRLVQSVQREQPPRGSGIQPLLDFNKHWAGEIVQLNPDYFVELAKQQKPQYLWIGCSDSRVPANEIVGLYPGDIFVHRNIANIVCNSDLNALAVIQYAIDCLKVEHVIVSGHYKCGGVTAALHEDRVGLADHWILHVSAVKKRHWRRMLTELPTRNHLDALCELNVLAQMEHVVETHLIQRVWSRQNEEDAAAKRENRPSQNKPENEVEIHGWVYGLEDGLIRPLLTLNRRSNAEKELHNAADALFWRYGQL
T4 sequence (P22748 19-312): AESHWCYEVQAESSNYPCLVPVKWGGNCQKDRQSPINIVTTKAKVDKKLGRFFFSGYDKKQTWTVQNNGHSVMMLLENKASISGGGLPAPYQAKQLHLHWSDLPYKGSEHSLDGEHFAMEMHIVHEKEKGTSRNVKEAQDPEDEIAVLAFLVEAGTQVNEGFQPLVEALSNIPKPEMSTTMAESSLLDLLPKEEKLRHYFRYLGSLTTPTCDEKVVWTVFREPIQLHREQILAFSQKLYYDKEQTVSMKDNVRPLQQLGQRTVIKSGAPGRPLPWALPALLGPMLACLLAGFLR
Sequence of SmCA (A0A3Q0KSG2 entry or part of it): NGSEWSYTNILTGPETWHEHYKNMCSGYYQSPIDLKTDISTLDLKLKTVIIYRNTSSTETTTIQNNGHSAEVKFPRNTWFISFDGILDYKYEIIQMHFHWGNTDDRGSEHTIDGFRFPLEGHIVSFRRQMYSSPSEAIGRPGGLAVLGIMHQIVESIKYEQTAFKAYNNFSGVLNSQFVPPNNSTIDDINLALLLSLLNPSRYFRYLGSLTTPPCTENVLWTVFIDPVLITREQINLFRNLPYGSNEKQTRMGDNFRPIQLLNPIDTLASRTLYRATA

## NS(=O)(=O)c1cccc(NC(=O)NCc2ccc(C(=O)Nc3nc(CC(=O)N4CC(=O)N5CCc6ccccc6C5C4)cs3)cc2)c1 (stereo not drawn) [Compound 29b, N-(4–(2-oxo-2–(4-oxo-1,3,4,6,7,11b-hexahydro-2H-pyrazino[2,1-a]isoquinolin-2-yl)ethyl)thiazol-2-yl)-4-((3–(3-sulfamoylphenyl)ureido)methyl)benzamide]
hCA IX
  Ki: 199 ± 17.6 nM
LdCA; [2]
  Ki: 218 ± 17.9 nM
SmCA; [3]
  Ki: 901 ± 77.6 nM
hCA II
  Ki: 7.1 ± 0.6 nM
hCA I
  Ki: 506 ± 27.9 nM
hCA IV
  Ki: 789 ± 66.2 nM

## NS(=O)(=O)c1ccc(CCNC(=O)N2CC(=O)N3CCc4ccccc4C3C2)cc1 (stereo not drawn) [Compound 34c, 4-Oxo-N-(4-sulfamoylphenethyl)-1,3,4,6,7,11b-hexahydro-2H-pyrazino[2,1-a]isoquinoline-2-carboxamide]
hCA IX
  Ki: 102 ± 5.9 nM
[1]
  activity against NTS: over 30%
LdCA; [2]
  Ki: 362 ± 27.3 nM
SmCA; [3]
  Ki: 5.6 ± 0.5 nM
hCA II
  Ki: 5.8 ± 0.3 nM
hCA I
  Ki: 20.5 ± 2 nM
hCA IV
  Ki: 4180 ± 442 nM

## NS(=O)(=O)c1ccc(NC(=S)Nc2ccc([Se]Cc3ccc(C(=O)N4CC(=O)N5CCc6ccccc6C5C4)cc3)cc2)cc1 (stereo not drawn) [Compound 9, 4–(3-(4-((4–(4-oxo-1,3,4,6,7,11b-hexahydro-2H-pyrazino[2,1-a]isoquinoline-2-carbonyl)benzyl)selanyl)phenyl)thioureido)benzenesulfonamide]
hCA IX
  Ki: 174 ± 17.2 nM
LdCA
  Ki: 276 ± 22.4 nM
SmCA
  Ki: 771 ± 40.1 nM
hCA II
  Ki: 131 ± 14 nM
hCA I
  Ki: 486 ± 24.9 nM
hCA IV
  Ki: 966 ± 82.8 nM

## NS(=O)(=O)c1ccc(CCNC(=O)Nc2ccc(C(=O)N3CC(=O)N4CCc5ccccc5C4C3)cn2)cc1 (stereo not drawn) [Compound 33, 4–(2-(3–(5-(4-Oxo-1,3,4,6,7,11b-hexahydro-2H-pyrazino[2,1-a]isoquinoline-2-carbonyl)pyridin-2-yl)ureido)ethyl)benzenesulfonamide]
hCA IX
  Ki: 90.9 ± 9.6 nM
LdCA; [2]
  Ki: 87.5 ± 4.9 nM
SmCA; [3]
  Ki: 581 ± 32.5 nM
hCA II
  Ki: 49.2 ± 3.5 nM
hCA I
  Ki: 128 ± 11.9 nM
hCA IV
  Ki: 6810 ± 379 nM

## NS(=O)(=O)c1cccc(NC(=O)N2CC(=O)N3CCc4ccccc4C3C2)c1 (stereo not drawn) [Compound 34b, 4-Oxo-N-(3-sulfamoylphenyl)-1,3,4,6,7,11b-hexahydro-2H-pyrazino[2,1-a]isoquinoline-2-carboxamide]
hCA IX
  Ki: 91.9 ± 8.8 nM
LdCA; [2]
  Ki: 347 ± 34.3 nM
SmCA; [3]
  Ki: 7200 ± 661 nM
hCA II
  Ki: 45.6 ± 3 nM
hCA I
  Ki: 409 ± 23.3 nM
hCA IV
  Ki: 517 ± 52.4 nM

## NS(=O)(=O)c1cccc(NC(=S)N2CC(=O)N3CCc4ccccc4C3C2)c1 (stereo not drawn) [Compound 35b, 4-Oxo-N-(3-sulfamoylphenyl)-1,3,4,6,7,11b-hexahydro-2H-pyrazino[2,1-a]isoquinoline-2-carbothioamide]
hCA IX
  Ki: 83.3 ± 7.3 nM
LdCA; [2]
  Ki: 237 ± 12.5 nM
SmCA; [3]
  Ki: 6150 ± 612 nM
hCA II
  Ki: 8 ± 0.8 nM
hCA I
  Ki: 86.5 ± 9 nM
hCA IV
  Ki: 47.9 ± 4.1 nM

## 4–(3-(4–(4-Oxo-1,3,4,6,7,11b-hexahydro-2H-pyrazino[2,1-a]isoquinoline-2-carbonyl) phenyl)ureido)benzenesulfonamide [Compound 31c]
hCA IX
  Ki: 31.1 ± 2.9 nM
LdCA; [2]
  Ki: 401 ± 20.7 nM
SmCA; [3]
  Ki: 62.8 ± 4 nM
TcCA
  Ki: 589 ± 37 nM
hCA IV
  Ki: 8700 ± 559 nM

## NS(=O)(=O)c1cccc(NC(=O)NCc2ccc(C(=O)N3CC(=O)N4CCc5ccccc5C4C3)cc2)c1 (stereo not drawn) [Compound 28b, 3–(3-(4–(4-Oxo-1,3,4,6,7,11b-hexahydro-2H-pyrazino[2,1-a]isoquinoline-2-carbonyl)benzyl)ureido)benzenesulfonamide]
hCA IX
  Ki: 29.9 ± 1.6 nM
LdCA; [2]
  Ki: 300 ± 30.5 nM
SmCA; [3]
  Ki: 824 ± 66.8 nM
hCA II
  Ki: 14.9 ± 1.5 nM
hCA I
  Ki: 96.5 ± 6.5 nM
hCA IV
  Ki: 851 ± 56.2 nM

## O=C(C1CCCCC1)N1CC(=O)N2CCc3ccccc3C2C1 (stereo not drawn) [PZQ, Praziquantel]
hCA IX
  Ki: > 10000 nM
LdCA; [2]
  Ki: > 10000 nM
SmCA; [3]
  Ki: > 10000 nM
hCA II
  Ki: > 10000 nM
hCA I
  Ki: > 10000 nM
hCA IV
  Ki: > 10000 nM

## NS(=O)(=O)c1ccc(NC(=O)NCc2ccc(C(=O)Nc3nc(CC(=O)N4CC(=O)N5CCc6ccccc6C5C4)cs3)cc2)cc1 (stereo not drawn) [Compound 29a, N-(4–(2-oxo-2–(4-oxo-1,3,4,6,7,11b-hexahydro-2H-pyrazino[2,1-a]isoquinolin-2-yl)ethyl)thiazol-2-yl)-4-((3–(4-sulfamoylphenyl)ureido)methyl)benzamide]
hCA IX
  Ki: 31.9 ± 1.9 nM
LdCA; [2]
  Ki: 85.5 ± 6.77 nM
SmCA; [3]
  Ki: 1640 ± 97 nM
hCA II
  Ki: 49.6 ± 3.2 nM
hCA I
  Ki: 314 ± 30.5 nM
hCA IV
  Ki: 541 ± 30.3 nM

## NS(=O)(=O)c1ccc(CCNC(=S)N2CC(=O)N3CCc4ccccc4C3C2)cc1 (stereo not drawn) [Compound 35c, 4-Oxo-N-(4-sulfamoylphenethyl)-1,3,4,6,7,11b-hexahydro-2H-pyrazino[2,1-a]isoquinoline-2-carbothioamide]
hCA IX
  Ki: 97.1 ± 7.9 nM
LdCA; [2]
  Ki: 485 ± 46 nM
SmCA; [3]
  Ki: 5 ± 0.5 nM
hCA II
  Ki: 7.6 ± 0.4 nM
hCA I
  Ki: 64 ± 5.4 nM
hCA IV
  Ki: 8270 ± 719 nM

## NS(=O)(=O)c1ccc(NC(=S)N2CC(=O)N3CCc4ccccc4C3C2)cc1 (stereo not drawn) [Compound 35a, 4-Oxo-N-(4-sulfamoylphenyl)-1,3,4,6,7,11b-hexahydro-2H-pyrazino[2,1-a]isoquinoline-2-carbothioamide]
hCA IX
  Ki: 82.2 ± 8.6 nM
LdCA; [2]
  Ki: 323 ± 22.2 nM
SmCA; [3]
  Ki: 79.4 ± 4.2 nM
hCA II
  Ki: 53.9 ± 4.4 nM
hCA I
  Ki: 303 ± 24.1 nM
hCA IV
  Ki: 7110 ± 404 nM

## 4–(3-(3–(4-Oxo-1,3,4,6,7,11b-hexahydro-2H-pyrazino[2,1-a]isoquinoline-2-carbonyl) phenyl)ureido)benzenesulfonamide [Compound 31a]
hCA IX
  Ki: 280 ± 15.4 nM
LdCA; [2]
  Ki: 248 ± 15.9 nM
SmCA; [3]
  Ki: 8.8 ± 0.8 nM
TcCA
  Ki: 1650 ± 129 nM
hCA IV
  Ki: 180 ± 19.5 nM

## 3–(3-(4–(4-Oxo-1,3,4,6,7,11b-hexahydro-2H-pyrazino[2,1-a]isoquinoline-2-carbonyl) phenyl)ureido)benzenesulfonamide [Compound 31d]
hCA IX
  Ki: 138 ± 7.8 nM
LdCA; [2]
  Ki: 82.8 ± 5.5 nM
SmCA; [3]
  Ki: 764 ± 68.3 nM
TcCA
  Ki: 393 ± 24.7 nM
hCA IV
  Ki: 320 ± 32.7 nM

## 3–(3-(3–(4-Oxo-1,3,4,6,7,11b-hexahydro-2H-pyrazino[2,1-a]isoquinoline-2-carbonyl) phenyl)ureido)benzenesulfonamide [Compound 31b]
hCA IX
  Ki: 31.2 ± 1.6 nM
LdCA; [2]
  Ki: 323 ± 16.7 nM
SmCA; [3]
  Ki: 2490 ± 144 nM
TcCA
  Ki: 309 ± 33.4 nM
hCA IV
  Ki: 451 ± 24.3 nM

## NS(=O)(=O)c1ccc(C(=O)N2CC(=O)N3CCc4ccccc4C3C2)cc1 (stereo not drawn) [Compound 4a, 4–(4-Oxo-1,3,4,6,7,11b-hexahydro-2H-pyrazino[2,1-a]isoquinoline-2-carbonyl) benzenesulfonamide]
hCA IX
  Ki: 30.3 ± 3 nM
LdCA; [2]
  Ki: 371 ± 26.9 nM
SmCA; [3]
  Ki: 1890 ± 195 nM
hCA II
  Ki: 44.6 ± 3.4 nM
hCA I
  Ki: 93.8 ± 8.8 nM
hCA IV
  Ki: 8860 ± 617 nM

## NS(=O)(=O)c1ccc(C(=O)Nc2nc(CC(=O)N3CC(=O)N4CCc5ccccc5C4C3)cs2)cc1 (stereo not drawn) [Compound 30, N-(4–(2-oxo-2–(4-oxo-1,3,4,6,7,11b-hexahydro-2H-pyrazino[2,1-a]isoquinolin-2-yl)ethyl)thiazol-2-yl)-4-sulfamoylbenzamide]
hCA IX
  Ki: 119 ± 12.4 nM
LdCA; [2]
  Ki: 81.3 ± 6.4 nM
SmCA; [3]
  Ki: 7.8 ± 0.6 nM
hCA II
  Ki: 8.5 ± 0.5 nM
hCA I
  Ki: 58.6 ± 6.2 nM
hCA IV
  Ki: 422 ± 26.6 nM

## NS(=O)(=O)c1ccc(CNC(=O)Nc2ccc(C(=O)N3CC(=O)N4CCc5ccccc5C4C3)cc2)cc1 (stereo not drawn) [Compound 32, 4-((3–(4-(4-Oxo-1,3,4,6,7,11b-hexahydro-2H-pyrazino[2,1-a]isoquinoline-2-carbonyl)phenyl)ureido)methyl)benzenesulfonamide]
hCA IX
  Ki: 112 ± 11.3 nM
LdCA; [2]
  Ki: 401 ± 34.8 nM
SmCA; [3]
  Ki: 6350 ± 472 nM
hCA II
  Ki: 26.5 ± 2.4 nM
hCA I
  Ki: 80.7 ± 4.8 nM
hCA IV
  Ki: 665 ± 47.3 nM
